Reference: BindingDB's records for doi:10.1016/j.bmcl.2008.05.016 (Astrazeneca R&D Boston, 2008)

Experiment: Inhibition of Cdk1

IC50 [µM]	SMILES
8.4	CN(C)c1ccc(-c2cc(C(=O)N[C@H]3CCCNC3)c(NC(N)=O)s2)cc1 [(S)-1-(5-(4-(dimethylamino)phenyl)-3-(piperidin-3-ylcarbamoyl)thiophen-2-yl)urea]
3.7	CN(C)C(=O)c1ccc(-c2cc(C(=O)N[C@H]3CCCNC3)c(NC(N)=O)s2)cc1 [(S)-1-(5-(4-(dimethylcarbamoyl)phenyl)-3-(piperidin-3-ylcarbamoyl)thiophen-2-yl)urea]
2.2	CS(=O)(=O)c1ccc(-c2cc(C(=O)N[C@H]3CCCNC3)c(NC(N)=O)s2)cc1 [(S)-1-(5-(4-(methylsulfonyl)phenyl)-3-(piperidin-3-ylcarbamoyl)thiophen-2-yl)urea]
3.3	NC(=O)Nc1sc(-c2ccc(F)cc2)cc1C(=O)N[C@H]1CCCNC1 [(S)-1-(5-(4-fluorophenyl)-3-(piperidin-3-ylcarbamoyl)thiophen-2-yl)urea]

More lines, now with the values behind:

SMILES	IC50 [µM]
NC(=O)Nc1sc(-c2cccc(Cl)c2)cc1C(=O)N[C@H]1CCCNC1 [1-(3-((S)-piperidin-3-ylcarbamoyl)-5-(3-chlorophenyl)thiophen-2-yl)urea]	8.8
NC(=O)Nc1sc(-c2cccc(F)c2)cc1C(=O)N[C@H]1CCCNC1 [1-(3-((S)-piperidin-3-ylcarbamoyl)-5-(3-fluorophenyl)thiophen-2-yl)urea]	5.6
CCN(CC)CCOc1ccc(-c2cc(C(=O)NC3CCNCC3)c(NC(N)=O)s2)cc1 [1-(5-(4-(2-(diethylamino)ethoxy)phenyl)-3-(piperidin-4-ylcarbamoyl)thiophen-2-yl)urea]	> 69
CCN(CC)CCOc1ccc(-c2cc(C(=O)Nc3cccnc3)c(NC(N)=O)s2)cc1 [1-(5-(4-(2-(diethylamino)ethoxy)phenyl)-3-(pyridin-3-ylcarbamoyl)thiophen-2-yl)urea]	44
CCN(CC)CCOc1ccc(-c2cc(C(=O)NC3CCNC3)c(NC(N)=O)s2)cc1 (configuration not stated) [1-(5-(4-(2-(diethylamino)ethoxy)phenyl)-3-(pyrrolidin-3-ylcarbamoyl)thiophen-2-yl)urea]	> 100
NC(=O)Nc1sc(-c2ccc(C(=O)N3CCCCC3)cc2)cc1C(=O)N[C@H]1CCCNC1 [(S)-1-(3-(piperidin-3-ylcarbamoyl)-5-(4-(piperidine-1-carbonyl)phenyl)thiophen-2-yl)urea]	10.8
NC(=O)Nc1sc(-c2ccncc2)cc1C(=O)N[C@H]1CCCNC1 [(S)-1-(3-(piperidin-3-ylcarbamoyl)-5-(pyridin-4-yl)thiophen-2-yl)urea]	1.8
Cc1ccc(-c2cc(C(=O)N[C@H]3CCCNC3)c(NC(N)=O)s2)cc1 [(S)-1-(3-(piperidin-3-ylcarbamoyl)-5-p-tolylthiophen-2-yl)urea]	5.5
